How the values were obtained:
[1] = test system: cultured human donor mast cells (dMCs); experiment: Mast cell activation test (MAT): CD63 upregulation on donor mast cells passively sensitized with patients' sera (dMCIgE+), flow cytometry; assay type: cell-based; settings: for CD63 upregulated after activation / CD63 upregulation: dMCIgE+ sensitized with patients' sera, mean; for CD63 upregulated after activation: first donor, 20 min; for CD63 upregulation: second donor; for up-regulation of CD63 (% of the cells): donor MCs passively sensitized with serum containing chlorhexidine-reactive IgE antibodies, FIG. 7
Experimental: Human MCs were cultured as described in Cop N, et al. Influence of IL-6, IL-33, and TNF-alpha on human mast cell activation: Lessons from single cell analysis by flow cytometry. Cytometry B Clin Cytom 2018; 94:405-11. Briefly, peripheral blood mononuclear cells were isolated from 50 mL peripheral blood from healthy volunteers. CD34^+ progenitor cells were enriched using the EasySep Human CD34 Selection Kit (Stemcell Technologies, Vancouver, Canada) according to the manufacturer's instructions. Isolated CD34^+ progenitor cells were cultured in a serum-free methylcellulose-based medium (MethoCult SF H4236, Stemcell Technologies) supplemented with penicillin (100 units/mL, Life Technologies, Waltham, USA), streptomycin (100 μg/mL, Life Technologies), low-density lipoprotein (LDL, 10 μg/mL, Stemcell Technologies), 2-mercaptoethanol (55 μmol/L, Life Technologies), stem cell factor (SCF, 100 ng/mL, Miltenyi Biotec, Bergisch Gladbach, Germany), interleukin-3 (IL-3, 100 ng/mL, PeproTech, Rocky Hill, USA) and interleukin-6 (IL-6, 50 ng/mL, Miltenyi Biotec) during 4-5 weeks. Participants gave a written informed consent as approved by the Ethical Committee of the University Hospital of Antwerp (Belgium B300201316408).
Degranulation of dMC was measured by overnight passively sensitizing the cells with serum at 37° C. in a humidified CO2-incubator. Next, dMC^IgE+ were centrifuged (500 g, 5 minutes, 20° C.) and the cell pellet was resolved in pre-warmed Tyrode's buffer (Sigma-Aldrich, St. Louis, USA) at a concentration of 0.5×10^6 cells/mL. Thereafter, 100 μL of the cells were pre-incubated with IL-33 (100 ng/mL) (Peprotech) for 20 minutes on 37° C. Subsequently, these pre-incubated dMC^IgE+ were stimulated with 100 μL Tyrode's buffer as a negative control or 100 μL of CHX (Sigma-Aldrich) during 20 minutes at 37° C. The final concentrations of CHX were: 0.05, 5, 500, 50 000 ng/mL, i.e. 0.0028, 0.28, 28; 2800 nM). Reactions were stopped by placing the cells on ice and removing the supernatants (500 g, 5 minutes, 4° C.). Cells were stained with monoclonal anti-human CD117-APC (clone 104D2, BD Biosciences, Erembodegem, Belgium), CD203c-PeCy7 (clone NP4D6, eBioscience) and CD63-FITC (clone H5C6, BD Bioscience) for 20 minutes at 4° C. Finally, cells were washed and resolved in PBS with 0.1% sodium azide and measured. Degranulation of dMCs was measured as surface upregulation of the lysosomal degranulation marker CD63. The mast cell activation test is repeated on dMCs of two different volunteers.
Flow cytometric analysis was performed on a FACSCanto II flow cytometer (BD Immunocytometry Systems, San Jose, Calif.) equipped with three lasers (405 nm, 488 nm and 633 nm). Correct compensation settings for antibodies conjugated with fluorochromes were performed using BD CompBeads (BD Biosciences). Flow cytometric data were analyzed using Kaluza Analysis 1.5 software (Beckman Coulter, USA). Unstained samples were used to set a marker between positive and negative cells according to the 99th percentile. A fluorescence minus one (FMO) was used to set a marker between positive and negative cells. Mast cells were gated out as CD117 and CD203c positive cells. Results are expressed as mean and range.
Human MCs were obtained as described in Example 1. Sera from patients with perioperative anaphylaxis were selected based on the presence of sIgE against rocuronium >0.13 kUa/L and a positive skin test rocuronium. MC activation was determined as described in Example 1 and cells were stimulated during 3 and 20 minutes, preferably 20 minutes, with final concentrations of rocuronium of 1.64, 16.4, 164 and 1640 μM.
Human MCs were obtained as described in Example 1.

[2] = test system: cultured human donor mast cells (dMCs); experiment: Direct mast cell activation: CD63 upregulation on donor mast cells not passively sensitized with serum (dMCIgE-); assay type: cell-based; settings: for CD63 upregulation / activation of unsensitized (unloaded) mast cells: MCs not passively sensitized with patients' serum

[H]/N=C(\N/C(=N/[H])NCCCCCCNC(=N)NC(=N)Nc1ccc(Cl)cc1)Nc1ccc(Cl)cc1 [chlorhexidine, 1:6-di(4-chlorophenyldiguanido)-hexane]
CD63 upregulation (degranulation) ([1]; dMC sensitized with sera of patients with isolated sIgE CHX (negative skin test and BAT)): no upregulation of CD63 | CD63 upregulated after activation ([1]; CHX 0.05 ng/mL (0.0028 nM), printed range 1-22): 1% | CD63 upregulated after activation ([1]; CHX 5 ng/mL (0.28 nM), printed range 1-76): 10% | CD63 upregulated after activation ([1]; CHX 500 ng/mL (28 nM), printed range 6-86): 57% | CD63 upregulated after activation ([1]; CHX 50000 ng/mL (2800 nM), printed range 0-88): 31% | CD63 upregulation ([1]; CHX 0.05 ng/mL (0.0028 nM), printed range 0-21): 2% | CD63 upregulation ([1]; CHX 5 ng/mL (0.28 nM), printed range 2-44): 7% | CD63 upregulation ([1]; CHX 500 ng/mL (28 nM), printed range 3-64): 30% | CD63 upregulation ([1]; CHX 50000 ng/mL (2800 nM), printed range 0-73): 45% | up-regulation of CD63 (% of the cells) [1]: 18% | CD63 upregulation / activation of unsensitized (unloaded) mast cells [2]: did not upregulate CD63 | CD63 upregulation / activation of unsensitized (unloaded) mast cells ([2]; listed as CHX): could not elicit activation/degranulation

CCCCCCCCN=c1ccn(CCCCCCCCCCn2ccc(=NCCCCCCCC)cc2)cc1 [octenidine]
up-regulation of CD63 (% of the cells) [1]: 18% | CD63 upregulation / activation of unsensitized (unloaded) mast cells [2]: did not upregulate CD63

C=CC[N+]1([C@H]2C[C@H]3[C@@H]4CC[C@H]5C[C@H](O)[C@@H](N6CCOCC6)C[C@]5(C)[C@H]4CC[C@]3(C)[C@H]2OC(C)=O)CCCC1 [rocuronium]
CD63 upregulation after stimulation ([1]; dMCIgE+ sensitized with serum of a rocuronium-allergic patient, rocuronium end concentration 164 μM, representative plot FIG. 6): 24% | CD63 upregulation after stimulation ([2]; dMCIgE- not passively sensitized, rocuronium end concentration 164 μM, representative plot FIG. 6): 0%

— patent US20230168243A1, “METHODS FOR DIAGNOSING IMMEDIATE HYPERSENSITIVY REACTION” (Universiteit Antwerpen, priority 2020, published 2023)
